Data: PubChem BioAssay (NCI)
Several values for one entry are separate records, joined by “and”; a condition that tells them apart may be missing. Identical values can stand only once.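 Cultured in 96-well plates, cells were exposed to test compound for 48 hours across five concentrations. GI50 marks 50% less growth. TGI: total growth inhibition.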 *1 amine or outer side, *2 acyl side, *3 side chain or, on linkers, in order; H or OH if unused. Where a SMILES comes first, the peptide text is derived from it. Bridges are numbered along the chain shown (N, C = ends). Roman numbers before positions name the chains, in order. [ ]: non-standard residue; d: D form. Actinocin(1to9) = Cc1c2oc3c(C)ccc(C(=O)[*:2])c3nc-2c(C(=O)[*:1])c(N)c1=O; NMeV = CN[CH](C(=O)O)C(C)C; Sar = CNCC(=O)O

Columns and labels:
Experiment in all cases: NCI-60 cell line screen, 48 h
[1] = tested on: HCT-116 colon
[2] = tested on: SK-MEL-2 melanoma
[3] = tested on: NCI-H226 lung
[4] = tested on: MDA-N
[5] = tested on: OVCAR-3 ovarian
[6] = tested on: IGROV1 ovarian
[7] = tested on: UACC-257 melanoma
[8] = tested on: SK-OV-3 ovarian
[9] = tested on: KM12 colon
[10] = tested on: TK-10 renal
[11] = tested on: SF-295 CNS
[12] = tested on: M14 melanoma
[13] = tested on: COLO 205 colon
[14] = tested on: CAKI-1 renal
[15] = tested on: SK-MEL-5 melanoma
[16] = tested on: EKVX NSCLC

Compound | TGI [1] [µM] | TGI [2] [µM] | TGI [3] | TGI [4] [µM] | TGI [5] | TGI [6] [µM] | TGI [7] [µM] | TGI [8] [µM] | TGI [9] [µM] | TGI [10] [µM] | TGI [11] [µM] | TGI [12] [µM] | TGI [13] [µM] | TGI [14] [µM] | TGI [15] [µM] | TGI [16] | GI50 [3] [µM] | GI50 [5] [µM] | GI50 [16] [µM]
O=C1CC(=O)NC(=NN2C(=O)CSC2c2ccc(Cl)cc2)N1 (stereo not drawn) | > 100 | > 100 | > 100 µM | > 100 | > 100 µM | > 100 | > 100 | > 100 | > 100 | > 100 | > 100 | > 100 | > 100 | > 100 | > 100 | – | – | – | –
CC(=O)O[C@H]1[C@@H](OC2CCCC2(c2ccccc2)c2ccccc2)O[N+]([O-])=C[C@@H]1c1ccccc1 (stereo partly drawn) | 10.5 | 24.1 | 80.2 µM | 15.6 | 21 µM | 7.61 | 23.6 | 29 | 23.4 | 23.2 | 21.7 | 18.5 | > 46 | 11 | 25.6 | 30.4 µM | – | – | –
c1ccc(CN2C3C4N(Cc5ccccc5)C2C2N(Cc5ccccc5)C(C(N2Cc2ccccc2)N4Cc2ccccc2)N3Cc2ccccc2)cc1 | > 100 | > 100 | > 100 µM | > 100 | > 100 µM | > 100 | > 100 | > 100 | > 100 | > 100 | > 100 | > 100 | > 100 | > 100 | > 100 | > 100 µM | – | – | –
CC(NC1=NCCO1)c1ccsc1 (stereo not drawn) | 34.1 | 50.2 | > 100 µM | 65.8 | 80.3 µM | > 100 | 40.2 | > 100 | 36.1 | > 100 | 39.4 | 35.4 | 35.3 | > 100 | 40.1 | > 100 µM | – | – | –
C=CC(=O)C#Cc1cnc(OC)nc1OC | 26.1 | 59.7 | > 92.7 µM | 40.5 | 33.7 µM | 53.6 | 20.3 | > 100 | 30 | 35.2 | > 100 | 37.7 | 13.3 | 21.1 | 43.5 | > 72 µM | – | – | –
O=C(O)CCC1C(=O)C2CCN1CC2 (stereo not drawn) | > 100 | > 100 | > 100 µM | > 100 | > 100 µM | > 100 | > 100 | > 100 | > 100 | > 100 | > 100 | > 100 | > 100 | > 100 | > 100 | > 100 µM | – | – | –
COc1cc2c(SCCN(C)C)nc3ccccc3c2c2ccccc12 | 2.83 | 4.03 | 8.12 µM | 4.87 | 7.79 µM | 2.77 | 3.38 | 25.6 | 2.69 | 7.23 | 3.45 | 3.46 | 3.75 | 3.87 | 3.08 | 4.08 µM | – | – | –
C#CCC(O)c1ccc(OC)c(OCc2ccccc2)c1 (stereo not drawn) | > 100 | > 100 | > 100 µM | > 100 | > 100 µM | > 100 | > 100 | > 100 | > 100 | > 100 | > 100 | > 100 | > 100 | > 100 | > 100 | > 100 µM | – | – | –
S=c1[nH]nc(COc2ccc(Cl)cc2)n1-c1ccccc1 | > 100 | > 100 | > 100 µM | > 100 | > 100 µM | > 100 | > 100 | > 100 | > 100 | > 100 | > 100 | > 100 | > 100 | 65.8 | – | > 100 µM | – | – | –
COC(=O)c1ccccc1C1CN=NC12Cc1cc3c(cc1C2=O)CCC3 (stereo not drawn) | > 100 | > 100 | > 100 µM | > 100 | > 100 µM | > 100 | > 100 | > 100 | > 100 | > 100 | > 100 | > 100 | > 100 | > 100 | 48.7 | > 100 µM | – | – | –
CC1(C)COC(c2cccc(C(O)c3ccc(Cl)cc3)c2)=N1 (stereo not drawn) | 37.9 | 47.5 | 33.5 µM | 70 | 45.7 µM | > 100 | – | 65.1 | > 100 | 76.3 | – | 45.1 | 34 | 87.1 | 28.6 | > 100 µM | – | – | –
O=C(Cc1csc2[n+]1C(=O)/C(=C/c1ccc(Cl)cc1)S2)Nc1ccccc1 | 42.5 | 37 | 49.6 µM | > 100 | 27.7 µM | > 100 | 58.3 | 99.5 | 82.8 | 87.7 | > 100 | > 100 | 30.2 | > 100 | 26.6 | 53.4 µM | – | – | –
C=C1[C@@H](OC(C)=O)/C=C/C2C3C(=O)[C@@](C)(OC(C)=O)[C@H]([C@H](OC(C)=O)[C@]4(O)[C@@H](C)C(=O)O[C@H]4[C@H]1Cl)[C@@]23C (stereo partly drawn) | > 100 | > 100 | > 100 µM | > 100 | > 100 µM | > 100 | > 100 | > 100 | > 100 | > 100 | > 100 | > 100 | > 100 | > 100 | > 100 | > 100 µM | – | – | –
CN(C)CCNc1ncnc2nc(-c3ccccc3)c(-c3ccccc3)nc12 | > 100 | > 100 | > 100 µM | > 100 | > 100 µM | > 100 | > 100 | > 100 | > 100 | > 100 | – | > 100 | > 100 | > 100 | > 100 | > 100 µM | – | – | –
CSc1ccccc1NC1=NCCO1 | > 100 | > 100 | > 100 µM | > 100 | > 100 µM | > 100 | > 100 | – | > 100 | > 100 | > 100 | > 100 | > 100 | > 100 | > 100 | > 100 µM | – | – | –
CN1CC=C(C#CC(C)(C)O)CC1 | > 37.5 | > 37.5 | > 37.5 µM | > 37.5 | > 37.5 µM | > 37.5 | > 37.5 | > 37.5 | > 37.5 | > 37.5 | > 37.5 | > 37.5 | > 37.5 | > 37.5 | > 37.5 | > 37.5 µM | – | – | –
C=C1C(=O)O[C@H]2C(=O)[C@H](C)CCC/C(C)=C/CC[C@@]3(C)O[C@@H]3C[C@@H]12 | 2.26 | 20.9 | 33.3 µM | 11.5 | 3.52 µM | 10.2 | 11.7 | 30.3 | 22.3 | 1.65 | 27.3 | 3.28 | 3.54 | 3.23 | 20.7 | – | – | – | –
O=C(NCCc1ccccn1)c1ccc2cc(C(=O)N3CC(CCl)c4ccc([N+](=O)[O-])cc43)[nH]c2c1 (stereo not drawn) | > 100 | > 100 | > 100 µM | > 100 | 28.2 µM | > 100 | > 100 | 46 | > 100 | 66.7 | > 68.5 | > 100 | > 100 | > 52.7 | > 100 | > 100 µM | – | – | –
C#CC(O)/C=C/C(O)CCCC(O)CC#CC(O)C#CCCCCC(O)/C=C/CCCCCC(=O)CCCCCCCCCCCCCC(O)C(O)C#CC(=O)O (stereo not drawn) | > 25 | > 25 | > 25 µM | > 25 | – | 9.59 | > 25 | > 25 | > 25 | > 25 | > 25 | > 25 | > 25 | > 25 | > 25 | > 25 µM | – | – | –
CC(=O)Nn1c(Cc2ccc(Cl)cc2)nn(C)c1=O | > 100 | > 100 | > 100 µM | > 100 | > 100 µM | > 100 | > 100 | > 100 | > 100 | > 100 | > 100 | > 100 | > 100 | > 100 | > 100 | > 100 µM | – | – | –
COC(=O)c1cc(C#N)[nH]c1-c1ccc(Br)s1 | 26.3 | 18.6 | 26.3 µM | 27.9 | 15.9 µM | 20.9 | 24.9 | 24.7 | > 50 | 25.7 | 21.1 | 22.9 | 29.1 | > 50.7 | 15.3 | 17.1 µM | – | – | –
O=C(c1ccc(Cl)c(Cl)c1)N(C(=S)OC12CC3CC(CC(C3)C1)C2)c1ccccc1 | 68.8 | 40.5 | > 100 µM | > 100 | > 100 µM | – | > 100 | > 100 | > 100 | > 100 | > 100 | 48.3 | 29.4 | > 100 | 40.1 | 72.5 µM | – | – | –
CC1=C(C)C2(C#N)C(=O)N3C(=NC(c4ccco4)NC3c3ccco3)C2(C#N)C(c2ccco2)N1 (stereo not drawn) | > 100 | > 100 | > 100 µM | > 100 | – | > 100 | > 100 | > 100 | > 100 | > 100 | > 100 | > 100 | > 100 | > 100 | > 100 | > 100 µM | – | – | –
CN1C(=O)C(O)CC1c1ccccc1F (stereo not drawn) | > 100 | > 100 | > 100 µM | > 100 | > 100 µM | > 100 | > 100 | – | > 100 | – | > 100 | > 100 | > 100 | > 100 | > 100 | > 100 µM | – | – | –
COc1ccc(CC2NC(=O)C(NC(=O)c3c4nc5c(C(=O)NC6C(=O)NC(Cc7ccc(OC)cc7)C(=O)N7CCCC7C(=O)N(C)CC(=O)N(C)C(C(C)C)C(=O)OC6C)ccc(C)c5oc-4c(C)c(=O)c3N)C(C)OC(=O)C(C(C)C)N(C)C(=O)CN(C)C(=O)C3CCCN3C2=O)cc1 (stereo not drawn) (I: TY(Me)P[Sar][NMeV] / II: TY(Me)P[Sar][NMeV]; ester I:1-I:C, II:1-II:C; linker I:N-II:N via Actinocin(1to9); configuration not given here) | – | 0.00549 | 0.0228 µM and 0.0527 µM | 0.0876 | 0.025 µM and 0.0737 µM | – | 0.0349 | 12.6 | 1.06 | – | > 100 | 0.135 | 0.0172 | 0.306 | 0.0172 | 3.27 µM and 0.862 µM | < 0.001 | < 0.001 | 0.0514
O=S(=O)(N=[Se](=O)(c1ccccc1)c1ccccc1)c1ccccc1 | > 100 | > 100 | > 100 µM | > 100 | > 100 µM | > 100 | – | > 100 | > 100 | > 100 | > 100 | > 100 | > 100 | > 100 | > 100 | > 100 µM | – | – | –
CC(=O)OC1CCn2c1nc1c2C(=O)C=C(N2CC2)C1=O (stereo not drawn) | 0.781 | 0.439 | 6 µM | 1.06 | 0.546 µM | 1.88 | 1.02 | 6.15 | – | 0.86 | 5.61 | 0.186 | 0.219 | 0.124 | 0.305 | 2.39 µM | – | – | –
CCc1cccc(C(C)C)c1NC(=O)C(=O)Nn1c(=S)[nH]c2ccccc2c1=O | > 100 | > 100 | > 100 µM | > 100 | > 100 µM | > 100 | > 100 | > 100 | > 100 | > 100 | > 100 | > 100 | – | > 100 | > 100 | > 100 µM | – | – | –
